The experiment concerns the target T1, G protein-coupled receptor 119 (GPR-119) (Mesocricetus auratus, UniProt A0A1U8CD06).
T1 construct: hamster-derived β-cells containing G protein-coupled receptor 119 (GPR-119), HIT-T15 cells; host or cells: HIT-T15 (hamster pancreatic β-cells)
T1 sequence (A0A1U8CD06 1-334): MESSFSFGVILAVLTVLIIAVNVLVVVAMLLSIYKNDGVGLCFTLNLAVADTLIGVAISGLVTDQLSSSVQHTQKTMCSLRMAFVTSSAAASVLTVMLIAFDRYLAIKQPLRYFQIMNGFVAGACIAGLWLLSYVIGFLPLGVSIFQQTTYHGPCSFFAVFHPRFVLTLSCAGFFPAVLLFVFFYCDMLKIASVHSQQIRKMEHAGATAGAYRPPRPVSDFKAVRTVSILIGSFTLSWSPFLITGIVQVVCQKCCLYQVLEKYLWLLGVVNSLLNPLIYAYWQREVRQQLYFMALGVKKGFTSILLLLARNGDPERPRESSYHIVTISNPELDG
Kind of experiment: Evaluation of cAMP activity in HIT-T15 cells (HTRF cAMP dynamic kit). Format: cell-based, hamster. The note with it: cAMP activation. On the procedure:
To check whether the cyclohexene derivatives according to the present invention activate cyclic adenosine monophosphate (cAMP), experiments were carried out, as follows.
The HIT-T15 cells were plated on a 96-well plate at 60,000 cells per well. On the next day of plating, the cells were treated with a varying concentration of each of the example compounds according to the present invention, and incubated at 37° C. for an hour. In this case, each of the treated compounds was used at six concentrations, ranging from […], to treat the cells.
The cyclic adenosine monophosphate (cAMP) activity was measured according to the manufacturer's instruction using a cAMP dynamic kit commercially available from Cis Bio Inc. (Bedford, Mass.). The cells were lysed, and a level of cAMP was determined by a competitive immunoassay using D2-labeled cAMP and a cryptate-labeled anti-cAMP antibody. Fluorescence was read in Flex Station (Molecular Devices). […] Unlabeled cAMP in the cell lysate competed with the D2-labeled cAMP against the cryptate-labeled antibody. Since a decrease in the measured intensity of the FRET signals represents a level of cAMP in the cells, the cAMP activities of the compounds are calculated as a change in FRET signals by adjusting an amount of dimethyl sulfoxide (DMSO).

The mark [1] stands for this setting: 1 h at 37° C., six concentrations, read-out: EC50.

The structures appear in SMILES notation. Like-named read-outs stand apart in the source and are kept apart here.

As for `CCc1cnc(N2CCC(COc3ccc(C4=CCC(C(=O)N5CCN(CC6CC6)CC5)CC4)cc3)CC2)nc1` (stereo not drawn) [Example 124, (4-(cyclopropylmethyl)piperazin-1-yl)(4-(4-((1-(5-ethylpyrimidin-2-yl)piperidin-4-yl)methoxy)phenyl)cyclohex-3-enyl)methanone], under setting [1], the EC50 worked out at 0.1 µM.

As to `CC(C)c1noc(N2CCC(COc3ccc(C4=CCC(C(=O)N5CC(O)C5)CC4)cc3)CC2)n1` (stereo not drawn) [Example 289, (3-hydroxyazetidin-1-yl)(4-(4-((1-(3-isopropyl-1,2,4-oxadiazol-5-yl)piperidin-4-yl)methoxy)phenyl)cyclohex-3-enyl)methanone], the EC50 under setting [1] worked out at 0.032 µM and the EC50 (read-out: EC50 value) was at most 0.05 µM.

Regarding `CC(C)c1noc(N2CCC(COc3ccc(C4=CCC(C(=O)N5CCC(F)(F)C5)CC4)cc3)CC2)n1` (stereo not drawn) [Example 259, (3,3-difluoropyrrolidin-1-yl)(4-(4-((1-(3-isopropyl-1,2,4-oxadiazol-5-yl)piperidin-4-yl)methoxy)phenyl)cyclohex-3-enyl)methanone], the EC50 reads like this: under setting [1], 0.01 µM; (read-out: EC50 value) at most 0.05 µM.

As to `CC(C)(C)OC(=O)N1CCC(COc2ccc(C3=CCC(C(=O)NCC(F)F)CC3)cc2)CC1` (stereo not drawn) [Example 3, tert-butyl 4-((4-(4-(2,2-difluoroethylcarbamoyl)cyclohex-1-enyl)phenoxy)methyl)piperidine-1-carboxylate], the EC50 under setting [1] was 0.034 µM and the EC50 (read-out: EC50 value) was at most 0.05 µM.

As to `CC(C)c1noc(N2CCC(COc3ccc(C4=CCC(C(=O)N5CCC(C#N)CC5)CC4)cc3)CC2)n1` (stereo not drawn) [Example 266, 1-(4-(4-((1-(3-isopropyl-1,2,4-oxadiazol-5-yl)piperidin-4-yl)methoxy)phenyl)cyclohex-3-enecarbonyl)piperidine-4-carbonitrile], the EC50 under setting [1] came out at 0.012 µM and the half-maximal effective concentration (EC50) (read-out: EC50 value) was at most 0.05 µM.

For the compound `CON(C)C(=O)C1CC=C(c2ccc(OCC3CCN(C(=O)OC(C)(C)C)CC3)cc2)CC1` (stereo not drawn) [Example 223, tert-butyl 4-((4-(4-(methoxy(methyl)carbamoyl)cyclohex-1-enyl)phenoxy)methyl)piperidine-1-carboxylate], the EC50 runs as follows: under setting [1], 0.025 µM; (read-out: EC50 value) at most 0.05 µM.

For the compound `CC(C)c1noc(N2CCC(COc3ccc(C4=CCC(C(=O)NC[C@@H](O)CO)CC4)nc3)CC2)n1` (stereo partly drawn) [Example 40, N-((R)-2,3-dihydroxypropyl)-4-(5-((1-(3-isopropyl-1,2,4-oxadiazol-5-yl)piperidin-4-yl)methoxy)pyridin-2-yl)cyclohex-3-enecarboxamide], under setting [1], the EC50 was 0.5 µM.

Consider `CC(C)c1noc(N2CCC(COc3ccc(C4=CCC(C(=O)N5CCC[C@H]5C(N)=O)CC4)cc3F)CC2)n1` (stereo partly drawn) [Example 108, (2S)-1-(4-(3-fluoro-4-((1-(3-isopropyl-1,2,4-oxadiazol-5-yl)piperidin-4-yl)methoxy)phenyl)cyclohex-3-enecarbonyl)pyrrolidine-2-carboxamide], for which, under setting [1], the EC50 turned out to be 0.055 µM.

Consider `CON=C1CCN(C(=O)C2CC=C(c3ccc(OCC4CCN(c5nc(C(C)C)no5)CC4)cc3)CC2)CC1` (stereo not drawn) [Example 278, (4-(4-((1-(3-isopropyl-1,2,4-oxadiazol-5-yl)piperidin-4-yl)methoxy)phenyl)cyclohex-3-enyl)(4-(methoxyimino)piperidin-1-yl)methanone], for which the EC50 under setting [1] amounted to 0.018 µM and the EC50 (read-out: EC50 value) is at most 0.05 µM.

With `CC(C)c1noc(N2CCC(COc3ccc(C4=CCC(C(=O)NCCF)CC4)cc3)CC2)n1` (stereo not drawn) [Example 75, N-(2-fluoroethyl)-4-(4-((1-(3-isopropyl-1,2,4-oxadiazol-5-yl)piperidin-4-yl)methoxy)phenyl)cyclohex-3-enecarboxamide], the EC50 under setting [1] came out at 0.21 µM.

As for `CCc1cnc(N2CCC(COc3ccc(C4=CCC(C(=O)N[C@@H](C)CO)CC4)cc3)CC2)nc1` (stereo partly drawn) [Example 127, 4-(4-((1-(5-ethylpyrimidin-2-yl)piperidin-4-yl)methoxy)phenyl)-N-((S)-1-hydroxypropan-2-yl)cyclohex-3-enecarboxamide], under setting [1], the EC50 stood at 0.083 µM.

For `CC(C)(C)OC(=O)N1CCC(COc2ccc(C3=CCC(C(=O)NC(CO)CO)CC3)cn2)CC1` (stereo not drawn) [Example 68, tert-butyl 4-((5-(4-(1,3-dihydroxypropan-2-ylcarbamoyl)cyclohex-1-enyl)pyridin-2-yloxy)methyl)piperidine-1-carboxylate], the EC50 under setting [1] was determined as 0.3 µM.

Turning to `CC(C)c1noc(N2CCC(COc3ccc(C4=CCC(C(=O)NCCO)CC4)cc3)CC2)n1` (stereo not drawn) [Example 31, N-(2-hydroxyethyl)-4-(4-((1-(3-isopropyl-1,2,4-oxadiazol-5-yl)piperidin-4-yl)methoxy)phenyl)cyclohex-3-enecarboxamide], the EC50 under setting [1] amounted to 0.26 µM.

`CC(C)(C)OC(=O)N1CCC(COc2ccc(C3=CCC(C(=O)N4CC[C@@H](F)C4)CC3)cn2)CC1` (stereo partly drawn) [Example 90, tert-butyl 4-((5-(4-((R)-3-fluoropyrrolidine-1-carbonyl)cyclohex-1-enyl)pyridin-2-yloxy)methyl)piperidine-1-carboxylate]: the EC50 runs as follows: under setting [1], 0.024 µM; (read-out: EC50 value) at most 0.05 µM.

As to `CC(C)c1noc(N2CCC(COc3ccc(C4=CCC(C(=O)NCCC(=O)N5CCOCC5)CC4)cc3F)CC2)n1` (stereo not drawn) [Example 113, 4-(3-fluoro-4-((1-(3-isopropyl-1,2,4-oxadiazol-5-yl)piperidin-4-yl)methoxy)phenyl)-N-(3-morpholino-3-oxopropyl)cyclohex-3-enecarboxamide], under setting [1], the EC50 was 0.068 µM.

As to `CC(C)(C)OC(=O)N1CCC(COc2ccc(C3=CCC(C(=O)N4CCCC4)CC3)cc2)CC1` (stereo not drawn) [Example 202, tert-butyl 4-((4-(4-(pyrrolidine-1-carbonyl)cyclohex-1-enyl)phenoxy)methyl)piperidine-1-carboxylate], the EC50 runs as follows: under setting [1], 0.024 µM; (read-out: EC50 value) at most 0.05 µM.

As for `CC(C)(C)OC(=O)N1CCC(COc2ccc(C3=CCC(C(=O)NC[C@@H](O)CO)CC3)cn2)CC1` (stereo partly drawn) [Example 32, tert-butyl 4-((5-(4-((R)-2,3-dihydroxypropylcarbamoyl)cyclohex-1-enyl)pyridin-2-yloxy)methyl)piperidine-1-carboxylate], under setting [1], the EC50 stood at 0.65 µM.

`CC(C)(C)OC(=O)N1CCC(COc2ccc(C3=CCC(C(=O)N4CC[C@@H](O)C4)CC3)cn2)CC1` (stereo partly drawn) [Example 43, tert-butyl 4-((5-(4-((R)-3-hydroxypyrrolidine-1-carbonyl)cyclohex-1-enyl)pyridin-2-yloxy)methyl)piperidine-1-carboxylate]: the EC50 under setting [1] came to 0.085 µM.

Regarding `CC(C)c1noc(N2CCC(COc3ccc(C4=CCC(C(=O)N5CC[C@H](F)C5)CC4)nc3)CC2)n1` (stereo partly drawn) [Example 102, ((S)-3-fluoropyrrolidin-1-yl)(4-(5-((1-(3-isopropyl-1,2,4-oxadiazol-5-yl)piperidin-4-yl)methoxy)pyridin-2-yl)cyclohex-3-enyl)methanone], the EC50 under setting [1] is 0.052 µM.

As to `CC(C)(C)OC(=O)N1CCC(COc2ccc(C3=CCC(C(=O)NC4CC4)CC3)cc2)CC1` (stereo not drawn) [Example 2, tert-butyl 4-((4-(4-(cyclopropylcarbamoyl)cyclohex-1-enyl)phenoxy)methyl)piperidine-1-carboxylate], the EC50 is 0.04 µM under setting [1] and at most 0.05 µM (read-out: EC50 value).

For the compound `CC(C)(C)OC(=O)N1CCC(COc2ccc(C3=CCC(C(=O)NCC(F)(F)F)CC3)c(F)c2)CC1` (stereo not drawn) [Example 142, tert-butyl 4-((3-fluoro-4-(4-(2,2,2-trifluoroethylcarbamoyl)cyclohex-1-enyl)phenoxy)methyl)piperidine-1-carboxylate], the EC50 under setting [1] came out at 0.085 µM.

Regarding `CCc1cnc(N2CCC(COc3ccc(C4=CCC(C(=O)N(CC)CCO)CC4)cc3)CC2)nc1` (stereo not drawn) [Example 175, N-ethyl-4-(4-((1-(5-ethylpyrimidin-2-yl)piperidin-4-yl)methoxy)phenyl)-N-(2-hydroxyethyl)cyclohex-3-enecarboxamide], the 50% effective concentration (EC50) is, setting by setting: under setting [1], 0.007 µM; (read-out: EC50 value) at most 0.05 µM.

As to `CC(C)(C)OC(=O)N1CCC(COc2ccc(C3=CCC(C(=O)N4CC[C@@H](O)C4)CC3)cc2)CC1` (stereo partly drawn) [Example 5, tert-butyl 4-((4-(4-((R)-3-hydroxypyrrolidine-1-carbonyl)cyclohex-1-enyl)phenoxy)methyl)piperidine-1-carboxylate], the EC50 reads like this: under setting [1], 0.029 µM; (read-out: EC50 value) at most 0.05 µM.

`CO/N=C1\CCN(C(=O)C2CC=C(c3ccc(OCC4CCN(C(=O)OC(C)(C)C)CC4)cc3)CC2)C1` (stereo not drawn) [Example 273, tert-butyl 4-((4-(4-(3-(methoxyimino)pyrrolidine-1-carbonyl)cyclohex-1-enyl)phenoxy)methyl)piperidine-1-carboxylate]: the EC50 under setting [1] is 0.011 µM and the EC50 (read-out: EC50 value) was at most 0.05 µM.

The values are drawn from patent US9758527B2, “Cyclohexene derivative, preparation method therefor, and pharmaceutical composition for preventing or treating metabolic diseases, containing same as active ingredient” (HYUNDAI PHARM CO., LTD., priority 2014, dated 2017).
